In ChEMBL document CHEMBL1121678, “Antitumor agents. 44. Bis(helenalinyl) esters and related derivatives as novel potent antileukemic agents” (1981):

Key:
Type in all cases: functional
[1] = tested on: Mus musculus; test: In vivo antileukemic activity against P-388 lymphocytic leukemia in BDF1 male mice at 2(mg/kg)/day intraperitoneal dose expressed as T/C
[2] = tested on: Mus musculus; test: Antileukemic activity of compound against the P-388 lymphocytic leukemic BDF1 male mice at 15(mg/kg)/day, administered intraperitoneally; 9/9.66 (Treated/control)
[3] = tested on: Mus musculus; test: Antileukemic activity of compound against the P-388 lymphocytic leukemic BDF1 male mice at 4(mg/kg)/day, administered intraperitoneally; 16.5/9.66 (Treated/control)
[4] = tested on: Mus musculus; test: In vivo antileukemic activity against P-388 lymphocytic leukemia in BDF1 male mice at 4(mg/kg)/day intraperitoneal dose expressed as T/C
[5] = tested on: Mus musculus; test: In vivo antileukemic activity against P-388 lymphocytic leukemia in BDF1 male mice at 30(mg/kg)/day intraperitoneal dose expressed as T/C
[6] = tested on: Mus musculus; test: Antileukemic activity of compound against the P-388 lymphocytic leukemic BDF1 male mice at 30(mg/kg)/day, administered intraperitoneally; 7/9.66 (Treated/control)
[7] = tested on: Mus musculus; test: In vivo antileukemic activity against P-388 lymphocytic leukemia in BDF1 male mice at 15(mg/kg)/day intraperitoneal dose expressed as T/C
[8] = tested on: Mus musculus; test: In vivo antileukemic activity against P-388 lymphocytic leukemia in BDF1 male mice at 8(mg/kg)/day intraperitoneal dose expressed as T/C
[9] = tested on: Mus musculus; test: In vivo antileukemic activity against P-388 lymphocytic leukemia in BDF1 male mice at 60 mg/kg/day intraperitoneal dose expressed as T/C
[10] = tested on: Mus musculus; test: Antileukemic activity of compound against the P-388 lymphocytic leukemic BDF1 male mice at 60 mg/kg/day, administered intraperitoneally; 4.7/9.66 (Treated/control); details: route intraperitoneal
[11] = tested on: Mus musculus; test: Antileukemic activity of compound against the P-388 lymphocytic leukemic BDF1 male mice at 8(mg/kg)/day, administered intraperitoneally; 18.8/9.66 (Treated/control)
[12] = tested on: Mus musculus; test: Antileukemic activity of compound against the P-388 lymphocytic leukemic BDF1 male mice at 2(mg/kg)/day, administered intraperitoneally; 11.5/9.66 (Treated/control)
[13] = tested on: Mus musculus; test: Antileukemic activity of compound against the P-388 lymphocytic leukemic BDF1 male mice at 25(mg/kg)/day, administered intraperitoneally; 10.6/9.66 (Treated/control)
[14] = tested on: Mus musculus; test: In vivo antileukemic activity against P-388 lymphocytic leukemia in BDF1 male mice at 3(mg/kg)/day intraperitoneal dose expressed as T/C
[15] = tested on: Mus musculus; test: Antileukemic activity of compound against the P-388 lymphocytic leukemic BDF1 male mice at 60 mg/kg/day, administered intraperitoneally; 5.8/9.66 (Treated/control); details: route intraperitoneal
[16] = tested on: Mus musculus; test: Antileukemic activity of compound against the P-388 lymphocytic leukemic BDF1 male mice at 3(mg/kg)/day, administered intraperitoneally; 13.8/9.66 (Treated/control)
[17] = tested on: Mus musculus; test: Antileukemic activity of compound against the P-388 lymphocytic leukemic BDF1 male mice at 15(mg/kg)/day, administered intraperitoneally; 25.2/9.66 (Treated/control)
[18] = tested on: Mus musculus; test: Antileukemic activity of compound against the P-388 lymphocytic leukemic BDF1 male mice at 30(mg/kg)/day, administered intraperitoneally; 16.2/9.66 (Treated/control)
[19] = tested on: Mus musculus; test: Antileukemic activity of compound against the P-388 lymphocytic leukemic BDF1 male mice at 8(mg/kg)/day, administered intraperitoneally; 13.8/9.66 (Treated/control)
[20] = tested on: Mus musculus; test: Antileukemic activity of compound against the P-388 lymphocytic leukemic BDF1 male mice at 25(mg/kg)/day, administered intraperitoneally; 13.3/9.66 (Treated/control)
[21] = tested on: Mus musculus; test: Antileukemic activity of compound against the P-388 lymphocytic leukemic BDF1 male mice at 15(mg/kg)/day, administered intraperitoneally; 11.4/9.66 (Treated/control)
[22] = tested on: Mus musculus; test: In vivo antileukemic activity against P-388 lymphocytic leukemia in BDF1 male mice at 25(mg/kg)/day intraperitoneal dose expressed as T/C
[23] = tested on: Mus musculus; test: Antileukemic activity of compound against the P-388 lymphocytic leukemic BDF1 male mice at 8(mg/kg)/day, administered intraperitoneally; […]/[…] (Treated/control)
[24] = tested on: Mus musculus; test: Antileukemic activity of compound against the P-388 lymphocytic leukemic BDF1 male mice at 5(mg/kg)/day, administered intraperitoneally; 11.8/9.66 (Treated/control)
[25] = tested on: Mus musculus; test: In vivo antileukemic activity against P-388 lymphocytic leukemia in BDF1 male mice at 5(mg/kg)/day intraperitoneal dose expressed as T/C
[26] = tested on: Mus musculus; test: Antileukemic activity of compound against the P-388 lymphocytic leukemic BDF1 male mice at 15(mg/kg)/day, administered intraperitoneally; 11.1/9.66 (Treated/control)
[27] = tested on: Mus musculus; test: Antileukemic activity of compound against the P-388 lymphocytic leukemic BDF1 male mice at 30(mg/kg)/day, administered intraperitoneally; 15.2/9.66 (Treated/control)
[28] = tested on: Mus musculus; test: Antileukemic activity of compound against the P-388 lymphocytic leukemic BDF1 male mice at 2(mg/kg)/day, administered intraperitoneally; 11.6/9.66 (Treated/control)
[29] = tested on: Mus musculus; test: Antileukemic activity of compound against the P-388 lymphocytic leukemic BDF1 male mice at 60 mg/kg/day, administered intraperitoneally; 12.6/9.66 (Treated/control); details: route intraperitoneal
[30] = tested on: Mus musculus; test: Antileukemic activity of compound against the P-388 lymphocytic leukemic BDF1 male mice at 4(mg/kg)/day, administered intraperitoneally; 11.0/9.66 (Treated/control)
[31] = tested on: Mus musculus; test: Antileukemic activity of compound against the P-388 lymphocytic leukemic BDF1 male mice at 15(mg/kg)/day, administered intraperitoneally; 13.6/9.66 (Treated/control)
[32] = tested on: Mus musculus; test: Antileukemic activity of compound against the P-388 lymphocytic leukemic BDF1 male mice at 15(mg/kg)/day, administered intraperitoneally (Treated/control)
[33] = tested on: Mus musculus; test: Antileukemic activity of compound against the P-388 lymphocytic leukemic BDF1 male mice at 15(mg/kg)/day, administered intraperitoneally; 13.2/9.66 (Treated/control)
[34] = tested on: Mus musculus; test: Antileukemic activity of compound against the P-388 lymphocytic leukemic BDF1 male mice at 8(mg/kg)/day, administered intraperitoneally; 11.8/9.66 (Treated/control)

C=C1C(=O)O[C@@H]2C[C@@H](C)[C@@H]3C=CC(=O)[C@@]3(C)[C@@H](OC(=O)CCCC(=O)O[C@H]3[C@@H]4C(=C)C(=O)O[C@@H]4C[C@@H](C)[C@@H]4C=CC(=O)[C@]43C)[C@H]12
T/C [1]: 116%
Average survival (days) [2]: 9
Average survival (days) [3]: 16.5
T/C [4]: 171%
T/C [5]: 72%
Average survival (days) [6]: 7
T/C [7]: 93%
T/C [8]: 195%
T/C [9]: 48%
Average survival (days) [10]: 4.7
Average survival (days) [11]: 18.8
Average survival (days) [12]: 11.2

C=C1C(=O)O[C@@H]2C[C@@H](C)[C@@H]3CCC(=O)[C@@]3(C)[C@@H](O)[C@H]12
Average survival (days) [13]: 10.6
T/C [9]: 110%

C=C1C(=O)O[C@@H]2C[C@@H](C)[C@@H]3C=CC(=O)[C@@]3(C)[C@@H](OC(=O)CC(=O)O[C@H]3[C@@H]4C(=C)C(=O)O[C@@H]4C[C@@H](C)[C@@H]4C=CC(=O)[C@]43C)[C@H]12
T/C [14]: 143%
T/C [5]: 168%
Average survival (days) [15]: 5.8
Average survival (days) [16]: 13.8
T/C [7]: 261%
T/C [8]: 143%
Average survival (days) [17]: 25.2
T/C [9]: 60%
Average survival (days) [18]: 16.2
Average survival (days) [19]: 13.8

C[C@@H]1C[C@H]2OC(=O)[C@@H](C)[C@H]2[C@H](O)[C@]2(C)C(=O)C=C[C@@H]12
Average survival (days) [20]: 13.3
Average survival (days) [21]: 11.4
T/C [7]: 118%
T/C [22]: 138%
T/C [8]: 111%
Average survival (days) [23]: 10.7

CC1C(=O)O[C@@H]2C[C@@H](C)[C@@H]3CCC(=O)[C@@]3(C)[C@@H](OC(=O)CC(=O)O[C@H]3[C@@H]4C(C)C(=O)O[C@@H]4C[C@@H](C)[C@@H]4CCC(=O)[C@]43C)[C@H]12 (stereo partly drawn)
Average survival (days) [24]: 11.8
T/C [25]: 122%
T/C [7]: 115%
Average survival (days) [26]: 11.1

C=C1C(=O)O[C@@H]2C[C@@H](C)[C@@H]3CCC(=O)[C@@]3(C)[C@@H](OC(=O)CCC(=O)O[C@H]3[C@@H]4C(=C)C(=O)O[C@@H]4C[C@@H](C)[C@@H]4CCC(=O)[C@]43C)[C@H]12
T/C [1]: 120%
Average survival (days) [27]: 15.2
T/C [4]: 114%
T/C [5]: 157%
Average survival (days) [28]: 11.6
T/C [7]: 141%
T/C [9]: 130%
Average survival (days) [29]: 12.6
Average survival (days) [30]: 11
Average survival (days) [31]: 13.6

C=C1C(=O)O[C@@H]2C[C@@H](C)[C@@H]3CCC(=O)[C@@]3(C)[C@@H](OC(=O)CC(=O)O[C@H]3[C@@H]4C(=C)C(=O)O[C@@H]4C[C@@H](C)[C@@H]4CCC(=O)[C@]43C)[C@H]12
T/C [32]: 137%
Average survival (days) [33]: 13.2
Average survival (days) [34]: 11.8
T/C [8]: 122%
